# Test system: full-length cation receptor (CaR) from the dogfish shark
# Assay: Dogfish shark CaR expressed in human HEK cells, response to ionic composition of extracellular fluid
# Type: cell-based
# Settings: extracellular fluid bathing HEK cells; range from freshwater to seawater
# Description: Polyvalent cation-sensing receptors (PVCRs) serve as salinity sensors in fish. These receptors are localized to the apical membranes of various cells within the fish's body (e.g., in the gills, intestine, kidney) that are known to be responsible for osmoregulation. A full-length cation receptor (CaR) from the dogfish shark has been expressed in human HEK cells. […] The ionic concentrations responded to encompassed the range which includes the transition from freshwater to seawater. Expression of PVCR mRNA is also modulated in fish after their transfer from freshwater to seawater, and is modulated by PVCR agonists.
row,Structure (SMILES),Receptor response to alterations in ionic composition
1,"[Ca+2] [Ca^2+, calcium]",respond to alterations
2,"[Mg+2] [Mg^2+, magnesium]",respond to alterations
3,"[Cl-].[Na+] [NaCl, sodium chloride]",respond to alterations
